Numbers after ± are expanded uncertainties.
Conditions: Gas, Oscillating disk viscometry

FC(F)CC(F)(F)F [1,1,1,3,3-pentafluoropropane]
Conditions | viscosity [mPa·s]
300.81 K, 136 kPa | 0.01064 ± 0.00042
300.88 K, 113 kPa | 0.01065 ± 0.00043
300.93 K, 107 kPa | 0.01066 ± 0.00043
320.26 K, 145 kPa | 0.01124 ± 0.00044
320.33 K, 186 kPa | 0.01125 ± 0.00044
320.53 K, 108 kPa | 0.01127 ± 0.00044
320.58 K, 254 kPa | 0.01127 ± 0.00044
338.61 K, 100 kPa | 0.01186 ± 0.00046
338.61 K, 435 kPa | 0.01186 ± 0.00046
338.98 K, 307 kPa | 0.01184 ± 0.00046
339.02 K, 207 kPa | 0.01186 ± 0.00046
339.15 K, 145 kPa | 0.01186 ± 0.00046
357.15 K, 592 kPa | 0.01252 ± 0.00048
357.23 K, 104 kPa | 0.01256 ± 0.00048
357.23 K, 305 kPa | 0.01253 ± 0.00048
357.38 K, 159 kPa | 0.01255 ± 0.00048
357.39 K, 108 kPa | 0.01256 ± 0.00048
357.4 K, 224 kPa | 0.01254 ± 0.00048
357.43 K, 403 kPa | 0.01252 ± 0.00048
357.43 K, 708 kPa | 0.01252 ± 0.00048
357.52 K, 503 kPa | 0.01252 ± 0.00048
376.25 K, 164 kPa | 0.01303 ± 0.00049
376.38 K, 254 kPa | 0.01303 ± 0.00049
376.39 K, 567 kPa | 0.01306 ± 0.00049
376.43 K, 1071 kPa | 0.01318 ± 0.0005
376.46 K, 107 kPa | 0.01304 ± 0.00049
376.54 K, 348 kPa | 0.01304 ± 0.00049
376.58 K, 676 kPa | 0.01308 ± 0.00049
376.61 K, 457 kPa | 0.01305 ± 0.00049
376.61 K, 945 kPa | 0.01314 ± 0.0005
376.63 K, 1312 kPa | 0.01339 ± 0.0005
376.64 K, 797 kPa | 0.0131 ± 0.00049
395.6 K, 109 kPa | 0.01357 ± 0.00051
395.66 K, 213 kPa | 0.01355 ± 0.00051
395.77 K, 311 kPa | 0.01358 ± 0.00051
395.8 K, 417 kPa | 0.01359 ± 0.00051
395.81 K, 823 kPa | 0.0137 ± 0.00051
395.85 K, 512 kPa | 0.01362 ± 0.00051
395.93 K, 616 kPa | 0.01364 ± 0.00051
395.93 K, 723 kPa | 0.01366 ± 0.00051
396 K, 934 kPa | 0.01374 ± 0.00051
396.02 K, 1280 kPa | 0.01396 ± 0.00052
396.17 K, 1390 kPa | 0.01408 ± 0.00052
396.22 K, 1164 kPa | 0.01388 ± 0.00052
396.24 K, 1044 kPa | 0.01386 ± 0.00052
396.35 K, 1505 kPa | 0.01416 ± 0.00052
396.46 K, 1614 kPa | 0.0143 ± 0.00053

[Ar] [argon]
Conditions | viscosity [mPa·s]
300.11 K, 400 kPa | 0.02271 ± 0.00077
300.17 K, 103 kPa | 0.02279 ± 0.0011
300.19 K, 199 kPa | 0.02265 ± 0.0011
300.25 K, 302 kPa | 0.02265 ± 0.00077
300.32 K, 832 kPa | 0.02286 ± 0.00078
300.38 K, 616 kPa | 0.0228 ± 0.00077
300.49 K, 2082 kPa | 0.02335 ± 0.00079
300.54 K, 3089 kPa | 0.02347 ± 0.00079
300.56 K, 4050 kPa | 0.02364 ± 0.0008
300.58 K, 4503 kPa | 0.02383 ± 0.0008
300.63 K, 3427 kPa | 0.02343 ± 0.00079
300.66 K, 2759 kPa | 0.02338 ± 0.00079
300.68 K, 1446 kPa | 0.02313 ± 0.00078
300.7 K, 3729 kPa | 0.02351 ± 0.0008
300.72 K, 2458 kPa | 0.02338 ± 0.00079
300.76 K, 1775 kPa | 0.02325 ± 0.00079
300.89 K, 1117 kPa | 0.02293 ± 0.00078
